Data reported in the supplement of paper PMC7661543.
± gives the standard deviation of the averaged measurements.

Columns and labels:
Assay in all cases: relative cell number vs DMSO control (72 h) (% of DMSO); higher = less growth inhibition (more cells)
Settings in all cases: sgRNA knockout: sgNT
ZR-75-1 = test system: ZR-75-1
Description: (§1)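 QMAP-Seq: a pool of 5 breast cancer cell lines (ZR-75-1, SKBR3, HCC-38, MDA-MB-231, BT-20), each carrying 12 doxycycline-inducible Cas9 sgRNA perturbations (11 knockouts plus non-targeting sgNT), was treated with compounds for 72 h at four 10-fold doses (10 nM-10 uM or 1 nM-1 uM range). Barcodes were amplified and sequenced, and cell number was interpolated from 293T spike-in standard curves. The result is expressed as % of the median of DMSO wells. Two biological replicates.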

SKBR3 = test system: SKBR3
Description: as §1

BT-20 = test system: BT-20
Description: as §1

HCC-38 = test system: HCC-38
Description: as §1

MDA-MB-231 = test system: MDA-MB-231
Description: as §1

Compound | relative cell number (ZR-75-1; 10 nM) | relative cell number (ZR-75-1; 100 nM) | relative cell number (ZR-75-1; 1000 nM) | relative cell number (ZR-75-1; 10000 nM) | relative cell number (SKBR3; 10 nM) | relative cell number (SKBR3; 100 nM) | relative cell number (SKBR3; 1000 nM) | relative cell number (SKBR3; 10000 nM) | relative cell number (BT-20; 10 nM) | relative cell number (BT-20; 100 nM) | relative cell number (BT-20; 1000 nM) | relative cell number (BT-20; 10000 nM) | relative cell number (HCC-38; 10 nM) | relative cell number (HCC-38; 100 nM) | relative cell number (HCC-38; 1000 nM) | relative cell number (HCC-38; 10000 nM) | relative cell number (MDA-MB-231; 10 nM) | relative cell number (MDA-MB-231; 100 nM) | relative cell number (MDA-MB-231; 1000 nM) | relative cell number (MDA-MB-231; 10000 nM)
CCOc1cc2ncc(C#N)c(Nc3ccc(OCc4ccccn4)c(Cl)c3)c2cc1NC(=O)/C=C/CN(C)C [Neratinib] | 100 ± 32 | 73.9 ± 1.6 | 70.7 ± 6 | 47.4 ± 0.48 | 92.7 ± 6.7 | 70.3 ± 1.5 | 27.1 ± 5.3 | 17.2 ± 0.58 | 86.8 ± 7.5 | 99.2 ± 16 | 79.7 ± 16 | 51.4 ± 2.7 | 85 ± 2.7 | 101 ± 7 | 95.9 ± 12 | 50 ± 3.4 | 98.3 ± 10 | 74.1 ± 4 | 91.24 ± 0.32 | 46.6 ± 1.1
O=C1NC(=O)/C(=C/c2ccc3nccc(-c4ccncc4)c3c2)S1 | 78.3 ± 2.5 | 128 ± 6.6 | 99 ± 38 | 38.6 ± 7.8 | 112 ± 35 | 123 ± 53 | 90.9 ± 9.8 | 34.7 ± 6.4 | 92.4 ± 28 | 81.1 ± 9.8 | 62.2 ± 16 | 46.5 ± 18 | 95.7 ± 5 | 85.8 ± 11 | 87.5 ± 1.1 | 42.38 ± 0.22 | 79.8 ± 14 | 87.5 ± 0.95 | 96 ± 18 | 54.1 ± 2.6
COc1cc(/C=C/C(=O)CC(=O)/C=C/c2ccc(O)c(OC)c2)ccc1O [Curcumin] | 73.8 ± 1.7 | 84.5 ± 52 | 112 ± 46 | 72.5 ± 0.98 | 106 ± 29 | 82.86 ± 0.028 | 111 ± 7.2 | 66.7 ± 0.98 | 116 ± 7.8 | 107 ± 32 | 95.9 ± 6.5 | 95.3 ± 16 | 100 ± 14 | 97.5 ± 7 | 95.5 ± 7.2 | 85.5 ± 21 | 91.8 ± 29 | 136 ± 59 | 88.6 ± 8.1 | 61.55 ± 0.48
C=CCc1cccc(/C=N/NC(=O)CN2CCN(Cc3ccccc3)CC2)c1O [PAC1] | 99.5 ± 9.9 | 46.5 ± 24 | 89.6 ± 8.7 | 12.5 ± 5.5 | 68 ± 7 | 88.5 ± 14 | 68 ± 27 | 32.5 ± 11 | 92 ± 13 | 84.1 ± 14 | 74.6 ± 4.9 | 45.7 ± 18 | 104 ± 7.8 | 103 ± 7 | 90 ± 11 | 33.9 ± 2.5 | 104 ± 32 | 134.14 ± 0.028 | 109 ± 32 | 31.7 ± 4.5
CCOC(=O)CCNc1cc(N2CCc3ccccc3CC2)nc(-c2ccccn2)n1 [GSKJ4] | 125 ± 56 | 113 ± 3.1 | 110 ± 7.2 | 33.4 ± 1.8 | 94.1 ± 37 | 104 ± 3.1 | 101 ± 9.6 | 88.8 ± 34 | 86.2 ± 8 | 105 ± 1.5 | 122 ± 12 | 52.7 ± 5.3 | 103 ± 7.2 | 98.1 ± 1.7 | 96.1 ± 22 | 60.8 ± 9.7 | 98.3 ± 30 | 123 ± 22 | 96.8 ± 44 | 34 ± 7.1
O=C(/C=C/c1ccc(O)cc1)c1ccc(O)cc1O [Isoliquiritigenin] | 120 ± 22 | 88 ± 10 | 99.8 ± 30 | 83.9 ± 5.5 | 83.1 ± 20 | 109 ± 30 | 82.7 ± 16 | 68.9 ± 8.6 | 113 ± 12 | 95.4 ± 25 | 80.4 ± 11 | 94.9 ± 1.9 | 96.1 ± 6.6 | 92.5 ± 6.5 | 96.7 ± 11 | 86.5 ± 9.8 | 87.3 ± 22 | 75.5 ± 23 | 87 ± 3 | 88 ± 26
CCCS(=O)(=O)Nc1ccc(F)c(C(=O)c2c[nH]c3ncc(Cl)cc23)c1F [PLX4720] | 138 ± 42 | 96.7 ± 15 | 123 ± 22 | 173 ± 42 | 109 ± 24 | 105 ± 22 | 93.3 ± 14 | 94.8 ± 13 | 104 ± 12 | 75.4 ± 11 | 98.4 ± 7.7 | 121 ± 32 | 103 ± 13 | 109 ± 15 | 110 ± 17 | 98.3 ± 14 | 129.8 ± 0.69 | 136 ± 62 | 70.5 ± 9.8 | 98 ± 3.6
O=C(O)CCCc1ccc(N(CCCl)CCCl)cc1 [Chlorambucil] | 81.3 ± 21 | 83.3 ± 26 | 78 ± 34 | 86.17 ± 0.75 | 107 ± 1.5 | 74.5 ± 4.3 | 82.17 ± 0.55 | 64.2 ± 2.1 | 100 ± 3 | 72.6 ± 16 | 93.2 ± 18 | 81.2 ± 22 | 90.4 ± 5.5 | 98.6 ± 12 | 96 ± 3.8 | 67.5 ± 2.6 | 99.2 ± 7.3 | 94.9 ± 9.4 | 91 ± 18 | 63.5 ± 24
C[C@@H](Oc1cc(-c2cnn(C3CCNCC3)c2)cnc1N)c1c(Cl)ccc(F)c1Cl [Crizotinib] | 75.6 ± 19 | 116 ± 13 | 34.1 ± 13 | 14.6 ± 0.35 | 92.7 ± 20 | 98.4 ± 12 | 88.6 ± 8.4 | 37.4 ± 27 | 83.9 ± 22 | 100.3 ± 0.25 | 75.5 ± 12 | 44.2 ± 4.7 | 91.2 ± 15 | 85.708 ± 0.047 | 86.8 ± 2.8 | 25.9 ± 4.9 | 89.5 ± 29 | 88.8 ± 15 | 54 ± 14 | 8.63 ± 0.23
COc1cc2c(Oc3ccc4[nH]c(C)cc4c3F)ncnc2cc1OCCCN1CCCC1 [Cediranib] | 113 ± 5.5 | 87.5 ± 7.5 | 86.3 ± 5.5 | 10.9 ± 2.5 | 103 ± 25 | 85.8 ± 14 | 113 ± 29 | 11.1 ± 1.2 | 104 ± 8.7 | 100 ± 29 | 104 ± 9 | 27.9 ± 8.5 | 108 ± 8.3 | 100 ± 1.8 | 59.3 ± 0.64 | 9.73 ± 0.54 | 91.3 ± 3.8 | 114 ± 20 | 104 ± 33 | 15.9 ± 2.8
COc1cc([C@@H]2c3cc4c(cc3[C@@H](O[C@@H]3O[C@@H]5CO[C@@H](c6cccs6)O[C@H]5[C@H](O)[C@H]3O)[C@H]3COC(=O)[C@H]23)OCO4)cc(OC)c1O [Teniposide] | 55.8 ± 2.6 | 31.4 ± 6.7 | 29.9 ± 8.2 | 26.1 ± 0.97 | 101 ± 6.8 | 26.4 ± 3.2 | 18.4 ± 2.3 | 15.9 ± 0.19 | 98.2 ± 1.9 | 67.9 ± 24 | 51.2 ± 5.6 | 22.6 ± 5.8 | 87.1 ± 7.7 | 43 ± 5.7 | 25.52 ± 0.049 | 13.4 ± 2 | 75.8 ± 16 | 25.4 ± 1.1 | 11 ± 1.3 | 11.2 ± 4.8
CCOC(=O)[C@@]1(CCCCCCOc2ccc(Cl)cc2)CO1 [Etomoxir] | 67.6 ± 37 | 90.7 ± 8.2 | 75.46 ± 0.14 | 57.2 ± 7.3 | 80.7 ± 22 | 98.3 ± 11 | 86.5 ± 40 | 98.3 ± 36 | 97.7 ± 1 | 90.3 ± 13 | 122 ± 23 | 107 ± 9.7 | 94.85 ± 0.42 | 94.52 ± 0.29 | 107 ± 19 | 86.4 ± 3.9 | 120 ± 25 | 109 ± 1.7 | 114 ± 30 | 92.8 ± 19
CCC(C)(C)C(=O)O[C@H]1C[C@@H](C)C=C2C=C[C@H](C)[C@H](CC[C@@H]3C[C@@H](O)CC(=O)O3)[C@H]21 [Simvastatin] | 95.6 ± 57 | 75.2 ± 6 | 109 ± 39 | 75.6 ± 20 | 95.7 ± 4.9 | 60.8 ± 3.1 | 113 ± 23 | 66.7 ± 15 | 108 ± 18 | 72.5 ± 13 | 89.7 ± 26 | 91.4 ± 19 | 90.5 ± 2.1 | 96 ± 21 | 103 ± 12 | 87.5 ± 13 | 130 ± 20 | 115 ± 28 | 82.6 ± 8.9 | 34.2 ± 13
